Data from patent US20200253868A1, “CELL AUTOPHAGY INHIBITOR AND PREPARATION METHOD THEREFOR AND APPLICATION THEREOF” (CHINA PHARMACEUTICAL UNIVERSITY, priority 2017, published 2020).

What was measured:
[1] = tested on: KRAS dependent H441 cells; test: Western blot of autophagy-related proteins LC3, Atg7 and Beclin1; assay type: cell-based, human; settings: H441, 0, 50, 100, 200 nM, 24 hours
Protocol: (§1) KRAS dependent H441 and H358 cells which are cultured overnight in a 10% FBS medium are seeded in a 24-well plate at an appropriate density, after 24 hours, RA-V (1) with a concentration of 0, 50, 100, and 200 nM is added to react for 24 hours, and then the cells are collected to detect the expression levels of autophagy-related proteins LC3, Atg7 and Beclin1 by the Western blot experiment.

[2] = tested on: KRAS dependent H358 cells; test: as above; assay type: cell-based, human; settings: H358, 0, 50, 100, 200 nM, 24 hours
Protocol: as §1

[3] = tested on: KRAS dependent H441 cells; test: GFP-LC3 transfection, autophagosome formation by fluorescence microscope; assay type: cell-based, human; settings: H441, 24 hours
Protocol: (§2) KRAS dependent H441 and H358 cells which are cultured overnight in a 10% FBS medium are seeded in a 24-well plate at an appropriate density and transfected with the GFP-LC3 plasmid, after 24 hours, RA-V (1) is added to react for 24 hours, and the localization of GFP-LC3 is observed with a fluorescence microscope, and the number of autophagy cells is calculated quantitatively.

[4] = tested on: KRAS dependent H358 cells; test: as above; assay type: cell-based, human; settings: H358, 24 hours
Protocol: as §2

[5] = tested on: KRAS independent H460 cells; test: PI/Annexin V double staining, flow cytometry; assay type: cell-based, human; settings: H460, 24 hours
Protocol: (§3) KRAS independent A549 and H460 and KRAS dependent H441 and H358 cell lines which are cultured overnight in a 10% FBS medium, are digested by trypsin to form cell suspensions, which are seeded at a suitable concentration on a 6-well plate, after 24 h, RA-V (1) is added to treat for 24 hours, and are digested by trypsin, and centrifuge at 2000 rpm for 5-10 minutes at room temperature to collect cells; resuspend the cells once with pre-chilled 1×PBS (4° C.), centrifuge at 2000 rpm for 5-10 minutes, and wash the cells; add 300 μL of 1×Binding Buffer to resuspend the cells; add 5 μL of Annexin V-FITC and mix, and incubate for 15 minutes at room temperature away from light; add 5 μL of PI staining 5 minutes before the operation, and detect the cells by the flow cytometry.

[6] = tested on: KRAS dependent H441 cells; test: PI/Annexin V double staining, flow cytometry; assay type: cell-based, human; settings: H441, 24 hours
Protocol: as §3

[7] = tested on: KRAS dependent H358 cells; test: PI/Annexin V double staining, flow cytometry; assay type: cell-based, human; settings: H358, 24 hours
Protocol: as §3

[8] = tested on: KRAS independent A549 cells; test: PI/Annexin V double staining, flow cytometry; assay type: cell-based, human; settings: A549, 24 hours
Protocol: as §3

A549 cells = test: Western blot of Capsase3, BCL-2 and BCL-XL; assay type: cell-based, human
Protocol: (§4) […] A549 and H460 cells which are cultured overnight in a 10% FBS medium are seeded in a 24-well plate at an appropriate density, after 24 hours, the cells are collected to detect the expression levels of […] proteins BCL-2, BCL-XL and […]3 by the Western blot experiment.

H460 cells = test: Western blot of Capsase3, BCL-2 and BCL-XL; assay type: cell-based, human
Protocol: as §4

H441 cells = test: Western blot of Capsase3, BCL-2 and BCL-XL; assay type: cell-based, human
H358 cells = test: Western blot of Capsase3, BCL-2 and BCL-XL; assay type: cell-based, human
[9] = tested on: KRAS dependent H441 model; test: Human lung cancer xenograft in nude mice, tumor inhibition rate; assay type: in vivo, BABL/c nude mice; settings: 2.5 mg/kg, nano-micelle injection, tail vein, once every other day, 14 days
Protocol: (§5) Human lung cancer cells KRAS dependent H441 and KRAS independent H460 are diluted with physiological saline to 1×10^7 cells/mL, and 100 μL of the cell suspension is inoculated subcutaneously in the left armpit of BABL/c nude mice and grown for 7 days to form tumor-bearing mouse model. The tumor-bearing mice with good growth are inoculated and randomly divided into groups. The RA-V nano-micelle injection prepared in Embodiment 3 is administered through the tail vein and administered once every other day, and the animals used are sacrificed 14 days after the administration, and the tumors are removed and weighed, calculate tumor suppression rate and perform statistical processing. Tumor inhibition rate (%)=(average tumor weight in the control group-average tumor weight in the experimental group)/average tumor weight in the control group×100%.

[10] = tested on: KRAS independent H460 model; test: as above; assay type: in vivo, BABL/c nude mice; settings: 2.5 mg/kg, nano-micelle injection, tail vein, once every other day, 14 days
Protocol: as §5

[11] = tested on: KRAS mutant HCT116 nude mice xenograft; test: Human colon cancer xenograft in nude mice, tumor inhibition rate; assay type: in vivo, BABL/c nude mice; settings: injection via tail vein, once every other day, 14 days
Protocol: (§6) HCT116 is diluted with serum-free McCoy's 5a medium to 1×10^7 cells/mL, and 100 μL of the cell suspension is inoculated subcutaneously in the left armpit of BABL/c nude mice and grown for 7 days to form a tumor-bearing mouse model. The tumor-bearing mice with good growth are inoculated and randomly divided into groups. The RA-V nano-micelle injection prepared in Embodiment 3 is administered through the tail vein and administered once every other day, and the animals used are sacrificed 14 days after the administration, and the tumors are removed and weighed, calculate tumor suppression rate and perform statistical processing. Tumor inhibition rate (%)=(average tumor weight in the control group-average tumor weight in the experimental group)/average tumor weight in the control group×100%.
as §6, with “RA-XII(2)” for “The RA-V nano-micelle”, “injection” for “injection prepared in Embodiment 3”

[12] = tested on: KRAS dependent H441 cells; test: MTT assay of cell viability; assay type: cell-based, human; settings: H441, 0, 50, 100, 200 nM, 24 hours
Protocol: (§7) MTT assay is used to determine the cell viability. KRAS independent A549 and H460 and KRAS dependent H441 and H358 cell lines which are cultured overnight in a 10% FBS medium, are digested by trypsin to form cell suspensions, which are seeded at a suitable concentration on a 96-well plate with 100 μl/well, cultured in a CO2 incubator for 24 hours until the cells are completely attached, and RA-V (1) with a final concentration of 0, 50, 100, 200 nM is added to react for 24 hours, and then 20 μl of MTT solution (5 mg/ml in PBS, pH=7.4) is added to each well and continue to incubate for 4 hours, stop the culture, and carefully discard the culture supernatant in the wells. Add 150 μl DMSO to each well and shake for 10 minutes to fully dissolve the crystals. Select the wavelength of 490 nm, measure the light absorption value of each well on the enzyme-linked immunosorbent detector, record the results, draw the cell growth curve with time as the abscissa and absorbance value as the ordinate.

[13] = tested on: KRAS dependent H358 cells; test: MTT assay of cell viability; assay type: cell-based, human; settings: H358, 0, 50, 100, 200 nM, 24 hours
Protocol: as §7

SMILES	expression levels of LC3-II, Atg7 and Beclin1 [1]	expression levels of LC3-II, Atg7 and Beclin1 [2]	GFP-LC3 of treated cells compared with the blank group [3]	GFP-LC3 of treated cells compared with the blank group [4]	cell apoptosis (PI/Annexin V) [5]	cell apoptosis (PI/Annexin V) [6]	cell apoptosis (PI/Annexin V) [7]	cell apoptosis (PI/Annexin V) [8]	cell apoptosis by expression of Capsase3, BCL-2 and BCL-XL (A549 cells)	cell apoptosis by expression of Capsase3, BCL-2 and BCL-XL (H460 cells)	cell apoptosis by expression of Capsase3, BCL-2 and BCL-XL (H441 cells)	cell apoptosis by expression of Capsase3, BCL-2 and BCL-XL (H358 cells)	tumor inhibition rate [9] [%]	anti-tumor effect [10]	tumor inhibition rate ([11]; HCT116, high dosage) [%]	tumor inhibition rate ([11]; HCT116, medium dosage) [%]	cell survival (MTT) [12]	cell survival (MTT) [13]
COc1ccc(C[C@H]2C(=O)N[C@@H](C)C(=O)N(C)C3Cc4ccc(cc4)Oc4cc(ccc4O)C[C@@H](C(=O)N[C@H](C)C(=O)N[C@@H](C)C(=O)N2C)N(C)C3=O)cc1 [RA-V (1), RA-V]	decrease with the increase of the concentration	decrease with the increase of the concentration	significantly reduce	significantly reduce	no significant effect	significantly induces the cell apoptosis	significantly induces the cell apoptosis	no significant effect	no significant effect	no significant effect	significantly induces the cell apoptosis	significantly induces the cell apoptosis	50.4	not effective	66.67	41.67	inhibits the survival	inhibits the survival
COc1ccc(C[C@H]2C(=O)N[C@@H](C)C(=O)N(C)C3Cc4ccc(cc4)Oc4cc(ccc4O[C@@H]4OC(CO)[C@@H](O)[C@H](O)C4O)C[C@@H](C(=O)N[C@H](C)C(=O)N[C@@H](C)C(=O)N2C)N(C)C3=O)cc1 (some centres unmarked) [RA-XII (2), RA-XII]	–	–	–	–	–	–	–	–	–	–	–	–	–	–	79.92	68.47	–	–
